# Test results as given in US5556859A, “N-(4-pyrimidinyl)amide pesticides” (DowElanco, priority 1994, dated 1996).
# Experiments:
# [1] = test system: cotton aphid (Aphis gossypii); assay: whole plant or invertebrate; details: 72 h, read-out: percent mortality, CA
# [2] = test system: peanut root knot nematode (Meloidogyne arenaria); assay: whole plant or invertebrate; details: in Arachis hypogaea, read-out: percent mortality, RKN
# [3] = test system: Southern corn rootworm (Diabrotica undecimpuctata howardi Barber); assay: whole plant or invertebrate; details: in Zea mays, soil, read-out: percent mortality, SCRW
# [4] = test system: two spotted spider mite (Tetranychus urticae); assay: whole plant or invertebrate; details: 72 h, read-out: percent mortality, TSSM
# [5] = test system: German cockroach (Blattella germanicus); assay: whole plant or invertebrate; details: 240 h, read-out: percent mortality, GECR
# [6] = test system: beet armyworm (Spodoptera exiqua); assay: whole plant or invertebrate; details: 144 h, read-out: percent mortality, BAW
# [7] = test system: aster leafhopper (Macrosteles fascifrons); assay: whole plant or invertebrate; details: 24 h, read-out: percent mortality, ALH
# [8] = test system: tobacco budworm (Heliothis virescens); assay: Activity against tobacco budworm (TBW); type: in vivo; details: 144 h, read-out: percent mortality, TBW
# Procedure: In conducting evaluations of insecticidal activity, each test compound was formulated as a 400 ppm solution, and this solution was then diluted with water to give lesser concentrations. The 400 ppm solution was prepared by combining 19.2 mL of 0.05% solution of Tween 20 (polyoxyethylene (20) sorbitan monolaurate) in water with a solution of 8 mg of the compound in 0.8 mL of acetone/EtOH (9/1).
# Activity against tobacco budworm (Heliothis virescens) was evaluated as follows. A general purpose lepidoptera artificial diet was diluted to half strength with a 5% non nutritive agar. 8 mL of this diet material was dispensed into each one ounce diet cup. One hour prior to treatment 18 to 20 eggs were dispensed onto the diet surface. The cups were then sprayed with formulated material through a flat-fan nozzle. The test was run using concentrations of 400 ppm and 50 ppm. Treated cups were air dried prior to sealing with plastic caps. The cups were held for 6 days at room temperature. Activity was then rated based on the total number of live and dead larvae, and on the size of live larvae.
structure (smiles),measurement,setting,value
"CCc1nccc(NC(=O)C(=CNCC(C)C)c2ccc(Oc3ccc(C#N)cc3)cc2)n1 [Compound 80, 3-(2-methylpropylamino)-N-(2-ethyl-4-pyrimidinyl)-2-(4-(4-cyanophenoxy)phenyl)-2-propenamide]",mortality at 400 ppm,[1],100%
same,mortality at 400 ppm,[2],100%
same,mortality at 24 µg/g,[3],100%
same,mortality at 400 ppm,[4],100%
same,mortality at 400 ppm,[5],100%
same,mortality at 400 ppm,[6],100%
same,mortality at 400 ppm,[7],60%
same,mortality at 400 ppm,[8],100%
"CCc1nccc(NC(=O)C(=CN(C)C)c2ccc(Oc3ccc(C(F)(F)F)cc3)cc2)n1 [Compound 73, 3-(dimethylamino)-N-(2-ethyl-4-pyrimidinyl)-1-(4-(4-trifluoromethylphenoxy)phenyl)-2-propenamide]",mortality at 400 ppm,[1],100%
same,mortality at 400 ppm,[2],100%
same,mortality at 24 µg/g,[3],100%
same,mortality at 400 ppm,[4],100%
same,mortality at 400 ppm,[5],100%
same,mortality at 400 ppm,[6],100%
same,mortality at 400 ppm,[7],100%
same,mortality at 400 ppm,[8],100%
"CCc1nccc(NC(=O)C(=CN(C)C)c2ccc(Oc3ccc(C#N)cc3)cc2)n1 [Compound 78, 3-(dimethylamino)-N-(2-ethyl-4-pyrimidinyl)-1-(4-(4-cyanophenoxy)phenyl)-2-propenamide]",mortality at 400 ppm,[1],80%
same,mortality at 400 ppm,[2],100%
same,mortality at 24 µg/g,[3],0%
same,mortality at 400 ppm,[4],80%
same,mortality at 400 ppm,[5],80%
same,mortality at 400 ppm,[6],100%
same,mortality at 400 ppm,[7],60%
same,mortality at 400 ppm,[8],100%
"Cc1nccc(NC(=O)Cc2cccc(Oc3ccccc3)c2)n1 [Compound 8, 3-phenoxyphenyl-N-(2-methyl-4-pyrimidinyl)acetamide]",mortality at 400 ppm,[1],100%
same,mortality at 400 ppm,[2],0%
same,mortality at 24 µg/g,[3],0%
same,mortality at 400 ppm,[4],0%
same,mortality at 400 ppm,[5],40%
same,mortality at 400 ppm,[6],0%
same,mortality at 400 ppm,[7],100%
same,mortality at 400 ppm,[8],0%
"CCc1nccc(NC(=O)Cc2ccc(Oc3ccc(C(F)(F)F)cc3)cc2)n1 [Compound 11, 4-(4-trifluoromethylphenoxy)phenyl-N-(2-ethyl-4-pyrimidinyl)acetamide]",mortality at 400 ppm,[1],100%
same,mortality at 400 ppm,[2],80%
same,mortality at 24 µg/g,[3],100%
same,mortality at 400 ppm,[4],100%
same,mortality at 400 ppm,[5],100%
same,mortality at 400 ppm,[6],100%
same,mortality at 400 ppm,[7],80%
same,mortality at 400 ppm,[8],100%
"CC(C)(C)c1nccc(NC(=O)Cc2ccc(Oc3ccc(Cl)cc3)cc2)n1 [Compound 59, 4-(4-chlorophenoxy)phenyl-N-(2-(1,1-dimethylethyl)-4-pyrimidinyl)acetamide]",mortality at 400 ppm,[1],100%
same,mortality at 400 ppm,[2],0%
same,mortality at 24 µg/g,[3],100%
same,mortality at 400 ppm,[4],0%
same,mortality at 400 ppm,[5],100%
same,mortality at 400 ppm,[6],100%
same,mortality at 400 ppm,[7],80%
same,mortality at 400 ppm,[8],100%
"CCc1nccc(NC(=O)Cc2ccc(Oc3ccc(C#N)cn3)cc2)n1 [Compound 13, 4-(5-cyano-2-pyridinyloxy)phenyl-N-(2-ethyl-4-pyrimidinyl)acetamide]",mortality at 400 ppm,[1],100%
same,mortality at 400 ppm,[2],100%
same,mortality at 24 µg/g,[3],0%
same,mortality at 400 ppm,[4],100%
same,mortality at 400 ppm,[5],60%
same,mortality at 400 ppm,[6],100%
same,mortality at 400 ppm,[7],0%
same,mortality at 400 ppm,[8],100%
"CCc1nccc(NC(=O)Cc2ccc(Oc3ccc(F)cc3)cc2)n1 [Compound 10, 4-(4-fluorophenoxy)phenyl-N-(2-ethyl-4-pyrimidinyl)acetamide]",mortality at 400 ppm,[1],100%
same,mortality at 400 ppm,[2],90%
same,mortality at 24 µg/g,[3],100%
same,mortality at 400 ppm,[4],100%
same,mortality at 400 ppm,[5],100%
same,mortality at 400 ppm,[6],100%
same,mortality at 400 ppm,[7],100%
same,mortality at 400 ppm,[8],100%
"O=C(Cc1ccc(Oc2ccc(C(F)(F)F)cc2)cc1)Nc1ccnc(C2CCC2)n1 [Compound 66, 4-(4-trifluoromethylphenoxy)phenyl-N-(2-cyclobutyl-4-pyrimidinyl)acetamide]",mortality at 400 ppm,[1],100%
same,mortality at 24 µg/g,[3],100%
same,mortality at 400 ppm,[4],100%
same,mortality at 400 ppm,[5],100%
same,mortality at 400 ppm,[6],100%
same,mortality at 400 ppm,[7],40%
same,mortality at 400 ppm,[8],100%
"O=C(Cc1ccc(OCC(F)(F)F)cc1)Nc1ccncn1 [Compound 28, 4-(2,2,2-trifluroethoxy)phenyl-N-(4-pyrimidinyl)acetamide]",mortality at 400 ppm,[1],100%
same,mortality at 400 ppm,[2],0%
same,mortality at 24 µg/g,[3],0%
same,mortality at 400 ppm,[4],0%
same,mortality at 400 ppm,[5],0%
same,mortality at 400 ppm,[6],0%
same,mortality at 400 ppm,[8],0%
